Mutagenic call data for five compounds are collected here from PubChem BioAssay AID1259407 (Chemical Carcinogenesis Research Information System (CCRIS), 2018).

Activity calls are given as the source filed them. No rule for the calls is given here.

The series relates to CCRIS mutagenicity, Ames/micronucleus/aberration tests. Nature of the series: CCRIS mutagenicity studies.
[1] abbreviates: Test System: AMES SALMONELLA TYPHIMURIUM, Strain/Indicator: TA100, Metabolic Activation: NONE, Method: PREINCUBATION

On to `CC(C)=CC1C(C(=O)OC(C#N)c2cccc(Oc3ccccc3)c2)C1(C)C` (centres undefined), for which the mutagenic call was “inactive; negative” (Test System: Ames Salmonella typhimurium, Strain/Indicator: TA98, Metabolic Activation: None, Method: Preincubation); “inactive; negative” (Test System: Ames Salmonella typhimurium, Strain/Indicator: TA98, Metabolic Activation: Rat, liver, S-9, Method: Preincubation); “inactive; negative” (Test System: Ames Salmonella typhimurium, Strain/Indicator: TA100, Metabolic Activation: None, Method: Preincubation); “inactive; negative” (Test System: Ames Salmonella typhimurium, Strain/Indicator: TA100, Metabolic Activation: Rat, liver, S-9, Method: Preincubation); “inactive; negative” (Test System: Ames Salmonella typhimurium, Strain/Indicator: TA1535, Metabolic Activation: None, Method: Preincubation); “inactive; negative” (Test System: Ames Salmonella typhimurium, Strain/Indicator: TA1535, Metabolic Activation: Rat, liver, S-9, Method: Preincubation). Besides, the mutagenic call is “inactive; negative” (Test System: Ames Salmonella typhimurium, Strain/Indicator: TA1537, Metabolic Activation: None, Method: Preincubation); “inactive; negative” (Test System: Ames Salmonella typhimurium, Strain/Indicator: TA1537, Metabolic Activation: Rat, liver, S-9, Method: Preincubation); “inactive; negative” (Test System: Ames Salmonella typhimurium, Strain/Indicator: TA1538, Metabolic Activation: None, Method: Preincubation); “inactive; negative” (Test System: Ames Salmonella typhimurium, Strain/Indicator: TA1538, Metabolic Activation: Rat, liver, S-9, Method: Preincubation); “inactive; negative” (Test System: E. coli, Strain/Indicator: WP-2 uvrA, Metabolic Activation: None, Method: Preincubation); “inactive; negative” (Test System: E. coli, Strain/Indicator: WP-2 uvrA, Metabolic Activation: Rat, liver, S-9, Method: Preincubation).

For the compound `NC(=O)N(CCC(=O)O)N=O`, the mutagenic call reads like this: under setting [1], “active; positive”; (Test System: AMES SALMONELLA TYPHIMURIUM, Strain/Indicator: TA1535, Metabolic Activation: NONE, Method: PREINCUBATION) “active; positive”; (Test System: E. COLI B, Strain/Indicator: H/R30R, Metabolic Activation: NONE) “active; positive”; (Test System: E. COLI B, Strain/Indicator: HS30R, Metabolic Activation: NONE) “active; positive”.

With `CCCCCCC(=O)OCCN1CCN(CCCN2c3ccccc3Sc3ccc(C(F)(F)F)cc32)CC1`, the mutagenic call was “inactive; negative” (Test System: AMES SALMONELLA TYPHIMURIUM, Strain/Indicator: TA98, Metabolic Activation: NONE); “inactive; negative” (Test System: AMES SALMONELLA TYPHIMURIUM, Strain/Indicator: TA98, Metabolic Activation: RAT, LIVER, S-9, PHENOBARBITAL AND 5,6-BENZOFLAVONE); “inactive; negative” (Test System: AMES SALMONELLA TYPHIMURIUM, Strain/Indicator: TA100, Metabolic Activation: NONE); “inactive; negative” (Test System: AMES SALMONELLA TYPHIMURIUM, Strain/Indicator: TA100, Metabolic Activation: RAT, LIVER, S-9, PHENOBARBITAL AND 5,6 BENZOFLAVONE); “inactive; negative” (Test System: AMES SALMONELLA TYPHIMURIUM, Strain/Indicator: TA1535, Metabolic Activation: NONE); “inactive; negative” (Test System: AMES SALMONELLA TYPHIMURIUM, Strain/Indicator: TA1535, Metabolic Activation: RAT, LIVER, S-9, PHENOBARBITAL AND 5,6-BENZOFLAVONE). For the same compound, the mutagenic call by setting is: (Test System: AMES SALMONELLA TYPHIMURIUM, Strain/Indicator: TA1537, Metabolic Activation: NONE) “inactive; negative”; (Test System: AMES SALMONELLA TYPHIMURIUM, Strain/Indicator: TA1537, Metabolic Activation: RAT, LIVER, S-9, PHENOBARBITAL AND 5,6-BENZOFLAVONE) “inactive; negative”; (Test System: E. COLI, Strain/Indicator: WP2 UVRA, Metabolic Activation: NONE) “inactive; negative”; (Test System: E. COLI, Strain/Indicator: WP2 UVRA, Metabolic Activation: RAT, LIVER, S-9, PHENOBARBITAL AND 5,6 BENZOFLAVONE) “inactive; negative”.

Take `OC[C@H](O)CCl`: the mutagenic call (Test System: AMES SALMONELLA TYPHIMURIUM, Strain/Indicator: TA98, Metabolic Activation: NONE, Method: PREINCUBATION) is “inactive; negative”; the mutagenic call (Test System: AMES SALMONELLA TYPHIMURIUM, Strain/Indicator: TA98, Metabolic Activation: RAT, LIVER, S-9, KANECHLOR 500, Method: PREINCUBATION) is “inactive; negative”; the mutagenic call under setting [1] is “active; positive”; the mutagenic call (Test System: AMES SALMONELLA TYPHIMURIUM, Strain/Indicator: TA100, Metabolic Activation: RAT, LIVER, S-9, KANECHLOR 500, Method: PREINCUBATION) is “inactive; negative”; the mutagenic call (Test System: AMES SALMONELLA TYPHIMURIUM, Strain/Indicator: TA100, Metabolic Activation: RAT, LIVER, S-9, PCB, Method: PREINCUBATION) was “active; positive”.

With `Cc1ccc2cc3c(c4c2c1CC4)C1OC1c1ccccc1-3` (centres undefined), the mutagenic call by setting is: (Test System: AMES SALMONELLA TYPHIMURIUM, Strain/Indicator: TA98, Metabolic Activation: NONE, Method: STANDARD PLATE) “active; positive”; (Test System: AMES SALMONELLA TYPHIMURIUM, Strain/Indicator: TA100, Metabolic Activation: NONE, Method: STANDARD PLATE) “active; positive”; (Test System: CHINESE HAMSTER V-79, Strain/Indicator: V-79/8-AZAGUANINE, Metabolic Activation: NONE, Method: STANDARD PLATE) “active; positive”.
